Measured values published in patent US8735364B2, “Antisense modulation of apolipoprotein B expression” (Genzyme Corporation, priority 2001, dated 2014).

Assays:
Type in all cases: in vivo, mouse
apolipoprotein B mRNA [1] = test: Target mRNA levels in liver, lean vs high fat fed C57BL/6 mice; settings: 50 mg/kg i.p. every three days, six weeks
Description: (§1) Male C57BL/6 mice were divided into two matched groups; (1) wild-type control animals (lean animals) and (2) animals receiving a high fat diet (60% kcal fat). Control animals received saline treatment and were maintained on a normal rodent diet. After overnight fasting, mice from each group were dosed intraperitoneally every three days with saline or 50 mg/kg ISIS 147764 (SEQ ID No: 109) for six weeks. At study termination and forty eight hours after the final injections, animals were sacrificed and evaluated for target mRNA levels in liver, cholesterol and triglyceride levels, liver enzyme levels and serum glucose levels.

[2] = Cholesterol, lipoprotein, triglyceride and serum glucose levels, lean vs high fat fed C57BL/6 mice; settings: 50 mg/kg i.p. every three days, six weeks
Description: as §1

[3] = Liver enzyme levels, lean vs high fat fed C57BL/6 mice; settings: for Liver Enzymes ALT Percent Change / Liver Enzymes AST Percent Change: 50 mg/kg i.p. every three days, six weeks
Description: as §1

[4] = Serum AST and ALT levels, high fat fed mice, 6 week study; settings: for ALT levels / AST levels: 6 weeks; for ALT levels: saline control 25 IU/L; for AST levels: saline control 65 IU/L
Description: (§2) Male C57BL/6 mice (n=8) receiving a high fat diet (60% kcal fat) were evaluated over the course of 6 weeks for the effects of treatment with the antisense oligonucleotide, ISIS 147764. Control animals received saline treatment (50 mg/kg). A subset of animals received a daily oral dose (20 mg/kg) atorvastatin calcium (Lipitor®, Pfizer Inc.). All mice, except atorvastatin-treated animals, were dosed intraperitoneally every three days (twice a week), after fasting overnight, with 5, 25, 50 mg/kg ISIS 147764 (SEQ ID No: 109) or saline (50 mg/kg) for six weeks. Serum cholesterol and lipoproteins were analyzed at 0, 2 and 6 week interim timepoints. At study termination, animals were sacrificed 48 hours after the final injections and evaluated for levels of target mRNA levels in liver, cholesterol, lipoprotein, triglyceride, liver enzyme (AST and ALT) and serum glucose levels as well as body, liver, spleen and fat pad weights.
Male C57BL/6 mice (n=8) receiving a high fat diet (60% kcal fat) were evaluated over the course of 6 weeks for the effects of ISIS 147764 on liver enzyme (AST and ALT) levels. Control animals received saline treatment (50 mg/kg). Mice were dosed intraperitoneally every three days (twice a week), after fasting overnight, with 5, 25, 50 mg/kg ISIS 147764 (SEQ ID No: 109) or saline (50 mg/kg) for six weeks.
Values in the table are expressed as IU/L. Increased levels of the liver enzymes ALT and AST indicate toxicity and liver damage.

[5] = Serum glucose levels, high fat fed mice, 6 week study; settings: study termination, saline control 300 mg/dL
Description: as §2
Male C57BL/6 mice (n=8) receiving a high fat diet (60% kcal fat) were evaluated over the course of 6 weeks for the effects of ISIS 147764 on serum glucose levels. Control animals received saline treatment (50 mg/kg). Mice were dosed intraperitoneally every three days (twice a week), after fasting overnight, with 5, 25, 50 mg/kg ISIS 147764 (SEQ ID No: 109) or saline (50 mg/kg) for six weeks.
At study termination, animals were sacrificed 48 hours after the final injections and evaluated for serum glucose levels. […] Mice treated with atorvastatin at a daily oral dose of 20 mg/kg had serum glucose levels of 215 mg/dL.

[6] = Body, spleen, liver and fat pad weight, high fat fed mice, 6 week study; settings: compared to saline-treated controls
Description: as §2
Male C57BL/6 mice (n=8) receiving a high fat diet (60% kcal fat) were evaluated over the course of 6 weeks for the effects of ISIS 147764 on body, spleen, liver and fat pad weight. Control animals received saline treatment (50 mg/kg). Mice were dosed intraperitoneally every three days (twice a week), after fasting overnight, with 5, 25, 50 mg/kg ISIS 147764 (SEQ ID No: 109) or saline (50 mg/kg) for six weeks.
At study termination, animals were sacrificed 48 hours after the final injections and body, spleen, liver and fat pad weights were measured. Values are expressed as percent change in body weight or ogan weight compared to the saline-treated control animals. Data from mice treated with atorvastatin at a daily dose of 20 mg/kg are also shown in the table Negative values indicated a decrease in weight.

apolipoprotein B mRNA [7] = test: Target mRNA levels in liver of ApoE knockout mice, RT-PCR; settings: six weeks
Description: Female ApoE knockout mice ranged in age from 5 to 7 weeks and were placed on a normal diet for 2 weeks before study initiation. ApoE knockout mice were then fed ad libitum a 60% fat diet, with 0.15% added cholesterol to induce dyslipidemia and obesity. Control animals were maintained on a high-fat diet with no added cholesterol After overnight fasting, mice from each group were dosed intraperitoneally every three days with saline, 50 mg/kg of a control antisense oligonucleotide (ISIS 29837 […]; SEQ ID NO. 124) or 5, 25 or 50 mg/kg ISIS 147764 (SEQ ID No: 109) for six weeks.
At study termination and forty eight hours after the final injections, animals were sacrificed and evaluated for target mRNA levels in liver by RT-PCR methods verified by Northern Blot analysis, glucose levels, cholesterol and lipid levels by HPLC separation methods and triglyceride and liver enzyme levels (perfomed by LabCorp Preclinical Services; San Diego, Calif.). Data are normalized to saline controls.

GTCCCTGAAGATGTCAATGC (2'-MOE gapmer with phosphorothioates, pattern not given here) [ISIS 147764, 2′-MOE gapmer phosphorothioate oligonucleotide to mouse apolipoprotein B]
mRNA Percent Change (apolipoprotein B mRNA [1]; high fat fed (60% kcal fat) C57BL/6 mice): −87% | mRNA Percent Change (apolipoprotein B mRNA [1]; lean C57BL/6 mice): −73% | CHOL Percent Change ([2]; high fat fed C57BL/6 mice): −67% | GLUC Percent Change ([2]; high fat fed C57BL/6 mice): −28% | Lipoproteins HDL Percent Change ([2]; high fat fed C57BL/6 mice): −65% | Lipoproteins LDL Percent Change ([2]; high fat fed C57BL/6 mice): −87% | Lipoproteins VLDL Percent Change ([2]; high fat fed C57BL/6 mice): No | TRIG Percent Change ([2]; high fat fed C57BL/6 mice): No | CHOL Percent Change ([2]; lean C57BL/6 mice): −63% | GLUC Percent Change ([2]; lean C57BL/6 mice): No | Lipoproteins HDL Percent Change ([2]; lean C57BL/6 mice): −44% | Lipoproteins LDL Percent Change ([2]; lean C57BL/6 mice): −64% | Lipoproteins VLDL Percent Change ([2]; lean C57BL/6 mice): No | TRIG Percent Change ([2]; lean C57BL/6 mice): −34% | Liver Enzymes ALT Percent Change ([3]; high fat fed C57BL/6 mice): Slight | Liver Enzymes AST Percent Change ([3]; high fat fed C57BL/6 mice): Slight | Liver Enzymes ALT Percent Change ([3]; lean C57BL/6 mice): No | Liver Enzymes AST Percent Change ([3]; lean C57BL/6 mice): Slight | changes in liver enzyme levels ([3]; lean and high fat fed C57BL/6 mice, 50 mg/kg): No significant changes | ALT levels ([4]; 5 mg/kg): 50 IU/L | AST levels ([4]; 5 mg/kg): 105 IU/L | ALT levels ([4]; 25 mg/kg): 70 IU/L | AST levels ([4]; 25 mg/kg): 70 IU/L | ALT levels ([4]; 50 mg/kg): 100 IU/L | AST levels ([4]; 50 mg/kg): 80 IU/L | change in AST levels over the duration of the study compared to saline controls ([4]; 5, 25 and 50 mg/kg): no significant change | serum glucose levels ([5]; 5 mg/kg): 225 mg/dL | serum glucose levels ([5]; 25 mg/kg): 190 mg/dL | serum glucose levels ([5]; 50 mg/kg): 180 mg/dL | Fat pad weight Percent Change ([6]; 5 mg/kg): 10% | Liver weight Percent Change ([6]; 5 mg/kg): 18% | Spleen weight Percent Change ([6]; 5 mg/kg): 10% | Total Body Wt. Percent Change ([6]; 5 mg/kg): 5% | Fat pad weight Percent Change ([6]; 25 mg/kg): 6% | Liver weight Percent Change ([6]; 25 mg/kg): 70% | Spleen weight Percent Change ([6]; 25 mg/kg): 10% | Total Body Wt. Percent Change ([6]; 25 mg/kg): 5% | Fat pad weight Percent Change ([6]; 50 mg/kg): −47% | Liver weight Percent Change ([6]; 50 mg/kg): 80% | Spleen weight Percent Change ([6]; 50 mg/kg): 46% | Total Body Wt. Percent Change ([6]; 50 mg/kg): −4% | mRNA Percent Inhibition (apolipoprotein B mRNA [7]; 5 mg/kg i.p. every three days): 2% | mRNA Percent Inhibition (apolipoprotein B mRNA [7]; 25 mg/kg i.p. every three days): 42% | mRNA Percent Inhibition (apolipoprotein B mRNA [7]; 50 mg/kg i.p. every three days): 70%
